Experiments:
Experiment in all cases: Herbicidal effect test by soil treatment
Assay type in all cases: in vivo
[1] = system: cotton (Gossypium herbaceum); settings: crop plant, three weeks after spraying
Method in brief: (§1)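 Herbicide formulations, diluted with water, were applied across the soil surface right after sowing, with seeds lying roughly 1 cm deep in sterilized diluvial soil. Effects were judged at three weeks by comparing top fresh weights with untreated plants.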

[2] = system: black nightshade (Solanum nigrum L.); settings: three weeks after spraying
Method in brief: as §1

[3] = system: barnyardgrass (Echinochloa crusgalli); settings: three weeks after spraying
Method in brief: as §1

[4] = system: wheat (Triticum aestivum); settings: crop plant, three weeks after spraying
Method in brief: as §1

[5] = system: annual sedge (Cyperus microiria); settings: three weeks after spraying
Method in brief: as §1

[6] = system: rorippa ssp. (Rorippa atrovirens); settings: three weeks after spraying
Method in brief: as §1

[7] = system: soybean (Glysine max); settings: crop plant, three weeks after spraying
Method in brief: as §1

[8] = system: rice (Oryza sativa); settings: crop plant, three weeks after spraying
Method in brief: as §1

[9] = system: hairly galinosoga (Galinsoga ciliat); settings: three weeks after spraying
Method in brief: as §1

[10] = system: corn (Zea mays); settings: crop plant, three weeks after spraying
Method in brief: as §1

[11] = system: large crabgrass (Digitaria adscendens); settings: three weeks after spraying
Method in brief: as §1

Question: With `O=C1CC(C(F)(F)F)CC(=O)N1Cc1ccc(Cl)cc1` [1-31] as the molecule, how does the “herbicidal effect, C (Gossypium herbaceum)” value ([1]; application amount 6.3 g/a) read?
Answer: 0 (Growth control rates of less than 5% (substantially no effect))

Question: And the “herbicidal effect, H (Solanum nigrum L.)” value ([2]; application amount 6.3 g/a)?
Answer: 5 (Growth control,rates of more than 90% (almost completely withered))

Question: What about the “herbicidal effect, N (Echinochloa crusgalli)” value ([3]; application amount 6.3 g/a) of the same molecule?
Answer: 4 (Growth control rates of 70 to 90%)

Question: What about the “herbicidal effect, W (Triticum vulgare)” value ([4]; application amount 6.3 g/a) of the same molecule?
Answer: 0 (Growth control rates of less than 5% (substantially no effect))

Question: And the “herbicidal effect, K (Cyperus microiria)” value ([5]; application amount 6.3 g/a)?
Answer: 5 (Growth control,rates of more than 90% (almost completely withered))

Question: What about the “herbicidal effect, I (Rorippa indica)” value ([6]; application amount 6.3 g/a) of the same molecule?
Answer: 5 (Growth control,rates of more than 90% (almost completely withered))

Question: And the “herbicidal effect, S (Glysine max)” value ([7]; application amount 6.3 g/a)?
Answer: 0 (Growth control rates of less than 5% (substantially no effect))

Question: And the “herbicidal effect, R (Oryza sativa)” value ([8]; application amount 6.3 g/a)?
Answer: 0 (Growth control rates of less than 5% (substantially no effect))

Question: And the “herbicidal effect, D (Galinsoga ciliat)” value ([9]; application amount 6.3 g/a)?
Answer: 5 (Growth control,rates of more than 90% (almost completely withered))

Question: And the “herbicidal effect, T (Zea mays)” value ([10]; application amount 6.3 g/a)?
Answer: 0 (Growth control rates of less than 5% (substantially no effect))

Question: What about the “herbicidal effect, M (Digitaria adscendens)” value ([11]; application amount 6.3 g/a) of the same molecule?
Answer: 4 (Growth control rates of 70 to 90%)

Question: What does the source list for `CCOC(=O)Nc1cc(N2C(=O)CC(C(F)(F)F)CC2=O)c(F)cc1Cl` [1-35]?
Answer: herbicidal effect, C (Gossypium herbaceum) ([1]; application amount 1.6 g/a): 0 (Growth control rates of less than 5% (substantially no effect)); herbicidal effect, H (Solanum nigrum L.) ([2]; application amount 1.6 g/a): 5 (Growth control,rates of more than 90% (almost completely withered)); herbicidal effect, N (Echinochloa crusgalli) ([3]; application amount 1.6 g/a): 4 (Growth control rates of 70 to 90%); herbicidal effect, W (Triticum vulgare) ([4]; application amount 1.6 g/a): 1 (Growth control rates of 5 to 20%); herbicidal effect, K (Cyperus microiria) ([5]; application amount 1.6 g/a): 5 (Growth control,rates of more than 90% (almost completely withered)); herbicidal effect, I (Rorippa indica) ([6]; application amount 1.6 g/a): 5 (Growth control,rates of more than 90% (almost completely withered)); herbicidal effect, S (Glysine max) ([7]; application amount 1.6 g/a): 0 (Growth control rates of less than 5% (substantially no effect)); herbicidal effect, R (Oryza sativa) ([8]; application amount 1.6 g/a): 0 (Growth control rates of less than 5% (substantially no effect)); herbicidal effect, D (Galinsoga ciliat) ([9]; application amount 1.6 g/a): 5 (Growth control,rates of more than 90% (almost completely withered)); herbicidal effect, T (Zea mays) ([10]; application amount 1.6 g/a): 0 (Growth control rates of less than 5% (substantially no effect)); herbicidal effect, M (Digitaria adscendens) ([11]; application amount 1.6 g/a): 5 (Growth control,rates of more than 90% (almost completely withered))

— EP0454444A1, “Glutarimide derivatives and herbicides” (NISSAN CHEMICAL INDUSTRIES LTD., priority 1990, dated 1991)
